Data: paper PMC8102414 (Heliyon, 2021)
Values after ≈ are worked out from the molar mass of the structure shown.

What was measured:
[1] = system: Pseudomonas aeruginosa ATCC 10145; experiment: Antimicrobial MIC, 2-fold serial dilution; settings: for MIC: Pseudomonas aeruginosa, ATCC10145, read-out: MIC (μg/mL) PA
[2] = system: Staphylococcus aureus ATCC 25923; experiment: Antimicrobial MIC, 2-fold serial dilution; settings: for MIC (μg/mL) SA: Gram-positive, Staphylococcus aureus (ATCC 25923), Inactive at >128 μg/mL; for MIC: Staphylococcus aureus, ATCC25923, read-out: MIC (μg/mL) SA
[3] = system: Escherichia coli TISTR 780; experiment: Antimicrobial MIC, 2-fold serial dilution; settings: for MIC: Escherichia coli, TISTR780, read-out: MIC (μg/mL) EC; for MIC (μg/mL) EC: Gram-negative, Escherichia coli (TISTR 780), Inactive at >128 μg/mL
[4] = system: 3T3-L1 adipocyte cells; experiment: Glucose consumption assay; format: cell-based; settings: induction of glucose consumption, 3T3-L1 adipocyte cells; Inactive at >100 μM
[5] = system: methicillin resistant Staphylococcus aureus NPRC 001R; experiment: Antimicrobial MIC, 2-fold serial dilution; settings: for MIC (μg/mL) MRSA: Gram-positive, Methicillin Resistant Staphylococcus aureus (NPRC 001R), Inactive at >128 μg/mL
[6] = system: advanced glycation end products (AGEs); experiment: Glycation inhibition assay; format: biochemical; settings: Inactive at >100 μM; for IC50: read-out: Glycation inhibition (IC50)
[7] = system: Salmonella typhi DMST 22842; experiment: microbe, parasite or virus in culture; format: cell-based; settings: for MIC (μg/mL) ST: Gram-negative, Salmonella typhi (DMST 22842), Inactive at >128 μg/mL; for MIC: Salmonella enterica, TYPHI, read-out: MIC (μg/mL) ST
[8] = system: Streptococcus pyogenes ATCC, 19615; experiment: Antimicrobial MIC, 2-fold serial dilution; settings: for MIC (μg/mL) SP: Gram-positive, Streptococcus pyogenes (ATCC, 19615), Inactive at >128 μg/mL; for MIC: Streptococcus pyogenes, read-out: MIC (μg/mL) SP
[9] = system: Candida albicans ATCC 10231; experiment: Antimicrobial MIC, 2-fold serial dilution; settings: for MIC (μg/mL) CA: Fungi, Candida albicans (ATCC 10231), Inactive at >128 μg/mL; for MIC: Candida albicans, ATCC10231, read-out: MIC (μg/mL) CA
[10] = system: Micrococcus luteus DMST 15503; experiment: Antimicrobial MIC, 2-fold serial dilution; settings: for MIC (μg/mL) MT: Gram-positive, Micrococcus luteus (DMST 15503), Inactive at >128 μg/mL; for MIC: Micrococcus luteus, DMST15503, read-out: MIC (μg/mL) MT
[11] = system: RAW 264.7 cells; experiment: Nitric oxide production inhibition assay; format: cell-based; settings: for NO Inhibition (IC50, μM): LPS-stimulated NO production in RAW 264.7 cells, Inactive at >100 μM
[12] = system: Shigella flexneri DMST 4423; experiment: Antimicrobial MIC, 2-fold serial dilution; settings: for MIC (μg/mL) SF: Gram-negative, Shigella flexneri (DMST 4423), Inactive at >128 μg/mL; for MIC: Shigella flexneri, DMST4423, read-out: MIC (μg/mL) SF
[13] = system: Salmonella typhimurium DMST 562; experiment: Antimicrobial MIC, 2-fold serial dilution; settings: for MIC: Salmonella enterica, TYPHIMURIUM, read-out: MIC (μg/mL) STR; for MIC (μg/mL) STR: Gram-negative, Salmonella typhimurium (DMST 562), Inactive at >128 μg/mL
[14] = system: Enterococcus faecalis ATCC 29212; experiment: Antimicrobial MIC, 2-fold serial dilution; settings: for MIC (μg/mL) EF: Gram-positive, Enterococcus faecalis (ATCC 29212), Inactive at >128 μg/mL; for MIC: Enterococcus faecalis, ATCC29212, read-out: MIC (μg/mL) EF

| Compound | MIC [1] | MIC (μg/mL) SA [2] | MIC [3] | Glucose consumption (IC50, μM) [4] | MIC (μg/mL) MRSA [5] | Glycation inhibition (IC50, μM) [6] | MIC (μg/mL) ST [7] | MIC (μg/mL) SP [8] | MIC (μg/mL) CA [9] | MIC (μg/mL) MT [10] | NO Inhibition (IC50, μM) [11] | MIC (μg/mL) SF [12] | MIC (μg/mL) EF [14] | MIC [7] | MIC (μg/mL) STR [13] | MIC [14] | MIC (μg/mL) EC [3] | MIC [2] | also measured |
| --- | --- | --- | --- | --- | --- | --- | --- | --- | --- | --- | --- | --- | --- | --- | --- | --- | --- | --- | --- |
| COc1ccc2c3c(oc2c1CC=C(C)C)-c1ccc(O)cc1OC3 [Compound 3, eryvarin D] | 128 µg/mL (≈ 381 µM) | Inactive | 128 µg/mL (≈ 381 µM) | Inactive | Inactive | Inactive | Inactive | Inactive | Inactive | Inactive | Inactive | Inactive | Inactive | – | – | – | – | – | MIC [13]: 128 µg/mL (≈ 381 µM) |
| O=c1oc2cc(O)ccc2c2oc3cc(O)ccc3c12 [Compound 6, coumestrol] | 128 µg/mL (≈ 477 µM) | Inactive | 128 µg/mL (≈ 477 µM) | Inactive | – | Inactive | – | Inactive | – | Inactive | Inactive | – | – | 128 µg/mL (≈ 477 µM) | Inactive | 128 µg/mL (≈ 477 µM) | – | – | MIC [9]: 128 µg/mL (≈ 477 µM); MIC [12]: 128 µg/mL (≈ 477 µM) |
| CC(C)=CCc1c(O)ccc2c1O[C@H]1c3ccc(O)cc3OC[C@@H]21 [Compound 11, phaseollidin] | 128 µg/mL (≈ 395 µM) | – | – | Inactive | – | Inactive | – | – | – | – | Inactive | Inactive | – | 128 µg/mL (≈ 395 µM) | Inactive | 128 µg/mL (≈ 395 µM) | Inactive | – | MIC [9]: 128 µg/mL (≈ 395 µM); MIC [10]: 128 µg/mL (≈ 395 µM) |
| O=C1C[C@@H](c2ccccc2)Oc2cc(O)cc(O)c21 [Compound 15, pinocembrin] | 128 µg/mL (≈ 499 µM) | – | 128 µg/mL (≈ 499 µM) | Inactive | Inactive | – | Inactive | Inactive | Inactive | Inactive | Inactive | – | Inactive | – | Inactive | – | – | 128 µg/mL (≈ 499 µM) | IC50 [6]: 83.1 ± 0.94 µM; MIC [12]: 128 µg/mL (≈ 499 µM) |
| O=c1c(O)c(-c2ccc(O)cc2)oc2ccc(O)cc12 [Compound 16, 3,6,4′-trihydroxyflavone] | 128 µg/mL (≈ 474 µM) | – | 128 µg/mL (≈ 474 µM) | Inactive | Inactive | Inactive | Inactive | Inactive | Inactive | Inactive | – | Inactive | Inactive | – | Inactive | – | – | 128 µg/mL (≈ 474 µM) | IC50 ([11]; Mus musculus, RAW264.7, read-out: NO Inhibition (IC50, μM)): 96.2 ± 1.61 µM |
| O=c1c(O)c(-c2ccccc2)oc2ccc(O)cc12 [Compound 17, 3,6-dihydroxyflavone] | 128 µg/mL (≈ 503 µM) | – | – | Inactive | Inactive | Inactive | Inactive | Inactive | Inactive | Inactive | Inactive | Inactive | Inactive | – | Inactive | – | Inactive | 128 µg/mL (≈ 503 µM) | – |
| COc1cc(O)cc2oc(-c3ccccc3)cc(=O)c12 [Compound 18, 5-methoxy-7-hydroxyflavone] | 128 µg/mL (≈ 477 µM) | – | 128 µg/mL (≈ 477 µM) | Inactive | Inactive | Inactive | – | Inactive | Inactive | Inactive | Inactive | Inactive | Inactive | 128 µg/mL (≈ 477 µM) | Inactive | – | – | 128 µg/mL (≈ 477 µM) | – |
| CC(C)=CCc1cc(-c2coc3c(CC=C(C)C)c(O)ccc3c2=O)ccc1O [Compound 20, erysubin F] | – | – | – | Inactive | Inactive | Inactive | Inactive | Inactive | – | Inactive | Inactive | Inactive | – | – | Inactive | 128 µg/mL (≈ 328 µM) | Inactive | – | MIC (μg/mL) PA ([1]; Gram-negative, Pseudomonas aeruginosa (ATCC 10145), Inactive at >128 μg/mL): Inactive |
| O=c1c(-c2ccc(O)cc2)coc2cc(O)cc(O)c12 [Compound 21, genistein] | 128 µg/mL (≈ 474 µM) | Inactive | – | Inactive | Inactive | Inactive | Inactive | Inactive | Inactive | Inactive | Inactive | Inactive | Inactive | – | Inactive | – | Inactive | – | – |
| CC(C)=CCc1cc([C@@H]2CC(=O)c3c(O)cc(O)cc3O2)cc(CC=C(C)C)c1O [Compound 25, abyssinone V] | 128 µg/mL (≈ 313 µM) | – | – | Inactive | Inactive | Inactive | – | – | Inactive | – | Inactive | – | Inactive | 128 µg/mL (≈ 313 µM) | – | – | Inactive | 128 µg/mL (≈ 313 µM) | MIC [8]: 128 µg/mL (≈ 313 µM); MIC [10]: 128 µg/mL (≈ 313 µM); MIC [12]: 128 µg/mL (≈ 313 µM); MIC [13]: 128 µg/mL (≈ 313 µM) |
| COc1ccc(C=CC(=O)O)c(O)c1 [Compound 28, 2-hydroxy-4-methoxy-cinnamic acid] | 128 µg/mL (≈ 659 µM) | Inactive | – | Inactive | Inactive | Inactive | Inactive | Inactive | Inactive | Inactive | Inactive | Inactive | Inactive | – | Inactive | – | Inactive | – | – |
| O=c1c(O)c(-c2ccc(O)c(O)c2)oc2cc(O)cc(O)c12 [Quercetin, quercetin, reference compound] | – | – | – | – | – | – | – | – | – | – | – | – | – | – | – | – | – | – | IC50 [6]: 59.1 ± 0.78 µM |
| CN[C@H](CC(C)C)C(=O)N[C@H]1C(=O)N[C@@H](CC(N)=O)C(=O)N[C@H]2C(=O)N[C@H]3C(=O)N[C@H](C(=O)N[C@H](C(=O)O)c4cc(O)cc(O)c4-c4cc3ccc4O)[C@H](O)c3ccc(c(Cl)c3)Oc3cc2cc(c3O[C@@H]2O[C@H](CO)[C@@H](O)[C@H](O)[C@H]2O[C@H]2C[C@](C)(N)[C@H](O)[C@H](C)O2)Oc2ccc(cc2Cl)[C@H]1O [Vancomycin, vancomycin, reference compound] | – | – | – | – | – | – | – | – | – | – | – | – | – | – | – | 2 µg/mL (≈ 1.38 µM) | – | 0.5 µg/mL (≈ 0.345 µM) | MIC ([5]; Staphylococcus aureus, MRSA, read-out: MIC (μg/mL) MRSA): 1 µg/mL (≈ 0.69 µM); MIC [8]: 2 µg/mL (≈ 1.38 µM); MIC [9]: 4 µg/mL (≈ 2.76 µM); MIC [10]: 2 µg/mL (≈ 1.38 µM) |
